The source of these data is PMC12830947, “Structure and mechanism of the broad spectrum CRISPR-associated ring nuclease Crn4” (Nature Communications, 2025).

One assay has as its target T1, Crn4b (Hyphomicrobiales bacterium, UniProt A0ACM8DFW0).
T1 construct: synthetic codon-optimised gene, pEhisV5TEV, E. coli C43(DE3); His tag removed by TEV; homodimer
T1 sequence (A0ACM8DFW0 5-128): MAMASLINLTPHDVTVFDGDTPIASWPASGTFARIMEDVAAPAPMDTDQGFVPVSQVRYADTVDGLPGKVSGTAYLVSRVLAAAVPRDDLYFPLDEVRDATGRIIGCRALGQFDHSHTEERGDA
Put plainly: HPLC ring nuclease assay. Particulars: pH 7.5, 250 mM NaCl, 1 mM EDTA, 37 C. It is filed as biochemical.

In another assay the target is T2, Crn4a (Actinomyces procaprae, UniProt Z9F5G1FLT2).
T2 construct: synthetic codon-optimised gene, pEhisV5TEV, E. coli C43(DE3); His tag removed by TEV; homodimer, one cA6 per dimer at the dimer interface
T2 sequence (Z9F5G1FLT2 1-149): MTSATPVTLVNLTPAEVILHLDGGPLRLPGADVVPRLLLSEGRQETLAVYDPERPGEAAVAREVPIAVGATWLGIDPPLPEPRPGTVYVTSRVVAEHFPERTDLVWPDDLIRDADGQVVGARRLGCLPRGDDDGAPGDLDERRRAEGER
Put plainly: X-ray co-crystal structure, […] A. In kind it is binding. Conditions: active site at dimer interface, one cA6 per dimer; two Mg2+; pH 5.5; inactive variant.

The target of assay [1] is Actinomyces procaprae Crn4a (CRISPR ring nuclease 4, subfamily a), wild type (Actinomyces procaprae). Put plainly: crystal structure; apo Crn4a at 13 mg/mL, sitting drop at 293 K, 0.1 M sodium acetate pH 4.5, 22% v/v PEG Smear Broad; 2.34 Å.
Assay [2] has as its target Actinomyces procaprae Crn4a H15A variant (Actinomyces procaprae). The assay can be described thus: crystal structure; Crn4a H15A at 11 mg/mL with 1.2 molar excess of cA6, sitting drop at 293 K, 23.8% PEG 3350, 0.2 M magnesium chloride, 0.1 M Bis-Tris pH 5.5; 1.44 Å.
The target of assay [3] is Hyphomicrobiales bacterium Crn4b (CRISPR ring nuclease 4, subfamily b), wild type (Hyphomicrobiales bacterium). Put plainly: crystal structure; apo Crn4b at 15 mg/mL, sitting drop at 293 K, 20% PEG 6000, 10% ethylene glycol, 0.1 M calcium chloride; 1.09 Å.

Take `Nc1ncnc2c1ncn2[C@@H]1O[C@@H]2COP(=O)(O)O[C@H]3[C@@H](O)[C@H](n4cnc5c(N)ncnc54)O[C@@H]3COP(=O)(O)O[C@H]3[C@@H](O)[C@H](n4cnc5c(N)ncnc54)O[C@@H]3COP(=O)(O)O[C@H]2[C@H]1O` [cA3]: the “HPLC ring nuclease assay” value at Crn4b (intermediate A3>P) was “Crn4b degraded cA4 and cA3 but was inactive against cA6”.

`Nc1ncnc2c1ncn2[C@@H]1O[C@@H]2COP(=O)(O)O[C@H]3[C@@H](O)[C@H](n4cnc5c(N)ncnc54)O[C@@H]3COP(=O)(O)O[C@H]3[C@@H](O)[C@H](n4cnc5c(N)ncnc54)O[C@@H]3COP(=O)(O)O[C@H]3[C@@H](O)[C@H](n4cnc5c(N)ncnc54)O[C@@H]3COP(=O)(O)O[C@H]2[C@H]1O` [cA4, cyclic tetra-adenylate]: the “HPLC ring nuclease assay” value on Crn4b (sequential cleavage via A4>P) was “Crn4b degraded cA4 and cA3 but was inactive against cA6”. On to `Nc1ncnc2c1ncn2[C@@H]1O[C@@H]2COP(=O)(O)O[C@H]3[C@@H](O)[C@H](n4cnc5c(N)ncnc54)O[C@@H]3COP(=O)(O)O[C@H]3[C@@H](O)[C@H](n4cnc5c(N)ncnc54)O[C@@H]3COP(=O)(O)O[C@H]3[C@@H](O)[C@H](n4cnc5c(N)ncnc54)O[C@@H]3COP(=O)(O)O[C@H]3[C@@H](O)[C@H](n4cnc5c(N)ncnc54)O[C@@H]3COP(=O)(O)O[C@H]3[C@@H](O)[C@H](n4cnc5c(N)ncnc54)O[C@@H]3COP(=O)(O)O[C@H]2[C@H]1O` [cA6, cyclic hexa-adenylate], for which the “X-ray co-crystal structure, 1.44 A” value on Crn4a is on record as “The structure of Crn4a in complex with cA6 shows the ligand binds at the dimer interface”. For orientation: stoichiometry N means the number of molecules, sites or subunits per partner or assembly. “Actinomyces procaprae Crn4a (CRISPR ring nuclease 4, subfamily a), wild type (enzyme)” gave a stoichiometry N in assay [1] of 2.

The compound “Actinomyces procaprae Crn4a H15A variant (enzyme)” returned a stoichiometry N in assay [2] of 2.

For the compound “Hyphomicrobiales bacterium Crn4b (CRISPR ring nuclease 4, subfamily b), wild type (enzyme)”, the stoichiometry N in assay [3] worked out at 2.
